The results in this text go back to patent US20140179607A9 (IRONWOOD PHARMACEUTICALS, INC, priority 2009, published 2014).

In one data set the test system is female CD-1 mice. Kind of data set: Gastrointestinal transit in mice (charcoal meal). The data set is classed as in vivo. To be noted: oral gavage, % distance travelled by charcoal front. The method, then: The purpose of the assay was to test the effect of the guanylate cyclase C agonist peptides on in vivo gastrointestinal transit in mice.
For the assay, female CD-1 mice (n=10 per group) weighing 25-30 g were fasted overnight and given access to water ad libitum. Activated charcoal (20 g; 100 mesh; Sigma cat# 242276) was suspended in 200 mL gum arabic (100 mg/mL), and stirred for at least one hour. Test peptides were prepared in a 20 mM Tris pH 6.9 vehicle.
Test peptide and vehicle were administered in 200 μL doses by oral gavage. Seven minutes after dosing the test peptides, 200 μL of the charcoal/gum arabic suspension was dosed by oral gavage. […] The total length of the small intestine was measured from the pyloric junction to the ileocaecal junction. The distance travelled by the charcoal was measured from the pyloric junction to the charcoal front. The Distance Travelled (%) was determined as (distance travelled by charcoal/total length of the small intestine)×100. Data were entered into the GraphPad Prism software program and analyzed by ANOVA using a Bonferroni multiple comparison test post-hoc. Plots of data and ED50 were also determined using the GraphPad Prism software package.
The dose-dependent effects of acute doses of Peptide 4, Peptide 1, Peptide 2, the dephosphorylated form of Peptide 1 and the dephosphorylated form of Peptide 2 on GI transit were determined in female CD mice. […]

The subject of data set [1] is ligated rat duodenal loops. In words: Fluid secretion in rat intestinal loops. The data set is classed as in vivo, rats. The protocol: The effect of GC-C agonist peptides on secretion were studied by injecting GC-C agonist peptides described herein directly into an isolated loop in wild-type rats.
Loops were isolated by surgically ligating three loops in the small intestine of the rat. The methodology for ligated loop formation was similar to that described in (London et al., 1997, Am J Physiol, p. G93-105). The loops were roughly centered and at lengths of 1-3 cm. The loops were injected with 200 μl of either peptide/GC-C agonist (0.1-5 μg) or vehicle (20 mM Tris, pH 7.5 or Krebs Ringer, 10 mM Glucose, HEPES buffer (KRGH)). Following a recovery time of up to 90 minutes the loops were excised. Weights were recorded for each loop before and after removal of the fluid contained therein. The length of each loop was also recorded. A weight to length ratio (W/L) for each loop was calculated to determine the effects of the GC-C agonist peptide described herein on secretion. Loop fluid volume was also determined.
Data showing increases in fluid secretion, pH increase and bicarbonate secretion in ligated duodenal loops in rats are shown in FIG. 2 and Table 8. […] Table 8 provides the results in ligated rat duodenal loops using 2.5 μg of peptide per loop.

For data set [2], the target named is T1, human prostate acid phosphatase (HuPrAP) (Homo sapiens, UniProt P15309).
T1 construct: purchased MP Biochemicals, Solon, Ohio 153872
T1 sequence (P15309 33-386): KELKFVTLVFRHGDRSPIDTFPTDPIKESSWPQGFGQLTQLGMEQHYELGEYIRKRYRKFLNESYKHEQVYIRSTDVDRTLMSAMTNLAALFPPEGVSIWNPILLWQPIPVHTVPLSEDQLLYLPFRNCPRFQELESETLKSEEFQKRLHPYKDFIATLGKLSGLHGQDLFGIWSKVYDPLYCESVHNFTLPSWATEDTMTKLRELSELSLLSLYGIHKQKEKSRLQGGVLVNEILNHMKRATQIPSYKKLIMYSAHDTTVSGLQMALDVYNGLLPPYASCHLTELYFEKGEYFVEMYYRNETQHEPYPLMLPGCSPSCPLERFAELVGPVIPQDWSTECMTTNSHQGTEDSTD
In words: Acid phosphatase reaction, human prostate acid phosphatase. The data set is classed as in vitro ADME. As to conditions: Human prostatic acid phosphatase pH 5, 90 minutes at 37° C. The protocol: (§1) For the alkaline phosphatase reactions, peptide stocks were prepared at 1 mg/mL in 0.1 M Tris-HCl pH 8, which were stored at −20° C. until assays were conducted. For the acid phosphatase reactions, peptide stocks were prepared at 1 mg/mL in 50 mM sodium phosphate pH 6, which was stored at −20° C. until assays were conducted.
(§2) Potato acid phosphatase (PoAP) was obtained from Sigma, St. Louis, Miss. Cat #P1146 and human prostate acid phosphatase (HuPrAP) was obtained from MP Biochemicals, Solon, Ohio. Cat # 153872. The acid phosphatases were dissolved to provide a solution containing 0.5 units AP/μL using 50 mM sodium acetate pH 5, 0.2 mM MgCl2. The acid phosphatase reactions were assembled in 20 μL quantities containing: • 2 μL 10× acid phosphatase buffer (500 mM sodium acetate pH 5, 2 mM MgCl2) • 2 μL peptide stock (1 mg/mL) • 12 μL H2O • 4 μL acid phosphatase (0.5 or 2 units)
(§3) The reaction solutions were mixed gently and incubated for 90 minutes at 37° C. The reaction solutions were stored at −20° C. for later analysis. For analysis, 7.5 μL acid phosphatase reactions were diluted to 50 μL with 0.1% formic acid in water to a final concentration of 10 μM. The control reactions for enzyme activity were assembled and diluted to 10 mM p-nitrophenylphosphate in place of peptide. After incubation, the reactions were diluted with 0.1 mL of 100 mM borate buffer pH 9 and read at the absorbance of 405 nm to monitor p-nitrophenol appearance.

Data set [3] deals with Potato acid phosphatase (PoAP). Kind of data set: Acid phosphatase reaction, potato acid phosphatase. The format is in vitro ADME. To be noted: Potato acid phosphatase pH 5, 90 minutes at 37° C. The protocol:
as §1, §2, §3

In data set [4] the test system is potato acid phosphatase (PoAP). Kind of data set: Acid phosphatase reaction, potato acid phosphatase. As to conditions: potato acid phosphatase (PoAP); Potato acid phosphatase pH 5, 90 minutes at 37° C. The format is in vitro ADME. The protocol:
as §1, §2, §3

The target of data set [5] is T2, Calf intestinal alkaline phosphatase (CIP) (Bos taurus, UniProt P19111).
T2 construct: purchased New England BioLabs, Ipswich, Mass; M0290S
T2 sequence (P19111 20-506): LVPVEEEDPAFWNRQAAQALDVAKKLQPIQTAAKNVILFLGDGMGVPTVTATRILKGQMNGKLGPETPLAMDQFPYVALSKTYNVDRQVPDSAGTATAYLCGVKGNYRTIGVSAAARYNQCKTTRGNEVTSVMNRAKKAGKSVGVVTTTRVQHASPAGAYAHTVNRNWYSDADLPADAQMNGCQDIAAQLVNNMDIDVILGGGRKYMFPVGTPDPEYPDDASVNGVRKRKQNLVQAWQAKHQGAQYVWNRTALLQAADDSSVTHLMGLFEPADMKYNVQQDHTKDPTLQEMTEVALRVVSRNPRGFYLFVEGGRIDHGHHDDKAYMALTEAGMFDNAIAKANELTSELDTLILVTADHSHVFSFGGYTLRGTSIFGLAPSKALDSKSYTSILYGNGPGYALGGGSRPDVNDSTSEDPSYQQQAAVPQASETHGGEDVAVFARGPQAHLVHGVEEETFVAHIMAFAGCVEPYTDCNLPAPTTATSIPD
In words: Alkaline phosphatase reaction (dephosphorylation of peptide substrates, LCMS). The format is in vitro ADME. To be noted: Alkaline phosphatase pH 8, 90 minutes at 37° C. The method, then:
as §1
(§4) Calf intestinal alkaline phosphatase (CIP) was obtained from New England BioLabs, Ipswich, Mass. Cat # M0290S. The CIP reaction solution was prepared by dilution with buffer (50 mM KCl, 10 mM Tris-HCl pH 8, 1 mM MgCl2, 50% glycerol) to 0.5 units/μL. The alkaline phosphatase reaction solutions were assembled in 20 μL quantities containing: • 2 μL 10× CIP buffer (1M NaCl, 500 mM Tris-HCl pH 8, 100 mM MgCl2) • 2 μL peptide stock (1 mg/mL) • 12 μL H2O • 4 μL alkaline phosphatase (0, 0.5 or 2 units)
(§5) The reaction solutions were mixed gently and incubated for 90 minutes at 37° C. These reaction solutions were stored at −20° C. until analysis. For analysis, the reaction solutions were diluted from 7.5 μL of CIP treated peptide to 50 μL with 0.1% formic acid in water to a final concentration of 10 μM.
(§6) Control reactions were assembled for enzyme activity containing 10 mM p-nitrophenylphosphate in place of peptide. After incubation, the reactions were diluted with 0.1 mL of 100 mM borate buffer pH 9 and read at the absorbance of 405 nm to monitor p-nitrophenol appearance.

Data set [6] concerns T3, calf intestinal alkaline phosphatase (CIP).
T3 construct: purchased New England BioLabs, Ipswich, Mass; M0290S
Described as above. The data set is classed as in vitro ADME. As to conditions: calf intestinal alkaline phosphatase (CIP); Alkaline phosphatase pH 8, 90 minutes at 37° C. The protocol: as §1, §4, §5, §6

The mark [7] stands for this setting: 2.5 μg of peptide per loop, duodenal loops.

Positions of bridges follow the written chain, without caps; N, C: chain ends. Non-standard residues stand in square brackets, D forms with d. Residues, ends and D or L forms follow the SMILES beside them. pS = N[C@@H](COP(=O)(O)O)C(=O)O

“CCEFCCNPACTGCY [Peptide 4, GC-C agonist peptide with Glu in place of phosphoserine, used as comparator]”: the “ED50 (μg/kg), acceleration of upper GI transit” value in the data set with female CD-1 mice was 2.06 µg/kg. In data set [1] (setting [7]), the “Rate of HCO3^− accumulation” value was 0.00008 Meq/min/cm, the “Rate of fluid accumulation” value was 2.0 µL/min/cm and the pH is 8.2. Also, in data set [1] (ligated rat duodenal loops), the “Induction of fluid accumulation / duodenal fluid secretion (FIG. 2)” value is “promote duodenal fluid secretion”.

As a reminder, the fraction remaining is what is left of the initial amount, in per cent. High values mean greater stability, low ones a greater loss. For the compound `CC(C)C[C@@H]1NC(=O)[C@H](COP(=O)(O)O)NC(=O)[C@@H]2CSSC[C@@H]3NC(=O)[C@H](C)NC(=O)[C@@H]4CCCN4C(=O)[C@H](CC(N)=O)NC(=O)[C@H](CSSC[C@H](N)C(=O)N2)NC(=O)[C@H](CSSC[C@@H](C(=O)N[C@@H](Cc2ccc(O)cc2)C(=O)O)NC(=O)CNC(=O)[C@H]([C@@H](C)O)NC3=O)NC1=O` [Peptide 1, CCpSLCCNPACTGCY] (H-CC[pS]LCCNPACTGCY-OH; disulfide 1-6, 2-10, 5-13 (inferred); N-terminus and C-terminus assumed), the “Dephospho (%)” value was found to be 6.2% in data set [2], 22.1% in data set [3] and 100% in data set [5]. The fraction remaining at 1.5 h, 0.1 mg/mL in data set [2] (human prostate acid phosphatase (HuPrAP)) is 93.8%; in data set [4], 77.8%; in data set [6], 0%.
